The results in this text go back to patent publication US9670139B2, “Telomerase activating compounds and methods of use thereof” (BEN-GURION UNIVERSITY OF THE NEGEV RESEARCH AND DEVELOPMENT …, priority 2007, dated 2017).

Structures are written as SMILES. Numbered stars: 1 amine (or outer) side, 2 acyl side, 3 side chain; on linkers, the order of the positions; unused ones are H or OH. Bridge positions count the residues as written; N and C are the ends. Square brackets hold non-standard residues; d marks the D form. Peptide text beside a SMILES is read from it. I, II: the chains in the order shown. Actinocin(9to1) = Cc1c2oc3c(C)ccc(C(=O)[*:1])c3nc-2c(C(=O)[*:2])c(N)c1=O; NMeV = CN[C@H](C(=O)O)C(C)C; Sar = CNCC(=O)O

One data set has as its system embryos. Description: Prevention of camptothecin damage to embryo development in rats. Format: in vivo, rat. Particulars: embryos at days 14-15. As for the experimental part: The ability of compounds of the present invention to prevent the damaging effects of drugs on embryonic development was examined in rats. Female rats were treated with camptothecin (CPT) (5 mg/kg), an anti-cancer drug, and then injected with Compound 68 (6 mg/kg) or vehicle (0.1%). Embryos were removed at days 14-15 of pregnancy and examined for damage.

The next data set concerns C. elegans. Description: Lifespan extension of nematodes (C. elegans). Format: in vivo. Particulars: for Lifes pan ext. %: nematodes grown with compound at 50 micromolar; for Lifes pan ext. % / Lifespan %: mean lifespan versus control; for Lifespan % / Lifespan extension (%): 50 micromolar; for Lifespan extension (%): Table 2, versus untreated controls. Here is the method:
Nematodes (C. elegans) were administered tri-phenyl telomerase-activating compounds presented in the following tables, and telomerase activity and/or expression was measured in terms of nematode lifespan extension. Nematodes were grown with the activators at 50 micromolar concentration, and the mean, maximum and half-life for Compound 68 and Compound 77, two representative molecules, was measured versus that of the control (FIG. 8). Values represent mean lifespan.
Survival of the C. elegans, a nematode that normally survives for 12-14 days, represents an acceptable model for studying life extension. Nematodes were administered tri-phenyl telomerase-activating compounds and their effect on the nematode lifespan extension was determined. Nematodes were grown with the activators at a concentration of 50 micromolar, and mean, maximum and half-life were measured in comparison with untreated controls. Lifespan increased by 13-43% (Table 2), and the median lifespan increased approximately 2-fold (from 12 days to 22 days, as shown in FIG. 8).

The next data set deals with telomerase protein. Description: Western blot of telomerase protein level in treated glioblastoma cells. Type of data set: cell-based, human. Particulars: 1 μM single dose. As for the experimental part: The effect of compounds of the present invention on the level of telomerase protein and of long-term treatment of a single dose of Compound 68 on telomerase was tested by exposing cells for various intervals (3-24 h) to 1 μM of the compound and detecting telomerase protein level by western blot analysis with anti-telomerase antibody. […] A time-dependent increase in telomerase was observed, with activation peaking at […] of treatment, and then gradually decreasing.
(In general: In western blotting, separated proteins are transferred to a membrane and probed.)

In another data set the test system is telomerase mRNA. The data set is described as follows: Northern blot of telomerase mRNA with hTERT probe. Format: cell-based, human. As for the experimental part:
Experiments were also performed to determine the effect of compounds of the present invention on the telomerase mRNA level (including the full and spliced variant telo-mRNAs). Cells were treated with a single dose of […] Compound 68 for various intervals (1-24 h). Total RNA extracts were prepared, and equal RNA concentrations were analyzed by northern blotting with a specific hTERT probe. […] The increased expression of telomerase was specific since no effect on GAPDH mRNA was observed (lower panel).

Data set [1] relates to telomerase. Description: Activation of telomerase expression in rat endometrial cells after subcutaneous injection. The conditions noted are these: 6 mg/kg subcutaneously, 24 h. Format: in vivo. As for the experimental part: Female rats in diestrus (the stage at which the epithelial layer in the rat endometrium undergoes degradation) were injected subcutaneously with 6 mg/kg of Compound 68, or with a vehicle. The rats were sacrificed 24 h later and endometrial sections were prepared from the uterine horns of treated and untreated rats and analyzed by histological procedures and by immunohistochemical staining Endometrial slices were stained by hematoxylin-eosin. […] In addition, morphologically, the endometrial tissue resembled the structure of the proliferating stages (proestrus and estrus) (FIG. 9A,B). Activation of telomerase expression in the endometrial cells of treated rats was examined by immunohistochemistry with anti-telomerase antibody (FIG. 9C-F). […] In addition, telomerase activity was measured in nuclear extracts derived from the endometrium of the various treatment groups. […] In some embodiments of the invention, the data support a role for the treatment of endometriosis with the compounds of this invention.

The target in data set [2] is telomerase (Homo sapiens, UniProt O14746). Description: Telomerase activity in RPE cells (quantitative telomerase detection kit, real time PCR). Type of data set: cell-based. The arrangement: endogenous in cells; host or cells: human retinal pigmented epithelial (RPE) cells. The conditions noted are these: FIG. 7B. The source says: FIG. 7: A. The effect of compounds of the present invention on human retinal pigmented epithelial cells under oxidative stress. B. The effect of compounds on telomerase activity in RPE cells (measured by a quantitative telomerase detection kit-real time PCR).
Chronic exposure of human retinal pigmented epithelial (RPE) cells to oxidative stress predisposes them to the development of age-related macular degeneration (AMD). Human RPE cells were exposed to oxidative stress by treatment with H2O2 (1 mM) for 24 hours, and H2O2 (0.5 mM) for another 24 hours. The cells were then treated daily for two days with the indicated compounds in the absence of H2O2. Increased cell growth was observed as a consequence of treatment with the compounds (FIG. 7A). Telomerase activity was enhanced in RPE cells treated with compounds 68 and 79 by 30- and 50-fold, respectively (FIG. 7B).

The nature of data set [3]: Solubility noted at synthesis. Format: physicochemical.

Sequence of telomerase (Homo sapiens, UniProt O14746) (O14746 whole entry): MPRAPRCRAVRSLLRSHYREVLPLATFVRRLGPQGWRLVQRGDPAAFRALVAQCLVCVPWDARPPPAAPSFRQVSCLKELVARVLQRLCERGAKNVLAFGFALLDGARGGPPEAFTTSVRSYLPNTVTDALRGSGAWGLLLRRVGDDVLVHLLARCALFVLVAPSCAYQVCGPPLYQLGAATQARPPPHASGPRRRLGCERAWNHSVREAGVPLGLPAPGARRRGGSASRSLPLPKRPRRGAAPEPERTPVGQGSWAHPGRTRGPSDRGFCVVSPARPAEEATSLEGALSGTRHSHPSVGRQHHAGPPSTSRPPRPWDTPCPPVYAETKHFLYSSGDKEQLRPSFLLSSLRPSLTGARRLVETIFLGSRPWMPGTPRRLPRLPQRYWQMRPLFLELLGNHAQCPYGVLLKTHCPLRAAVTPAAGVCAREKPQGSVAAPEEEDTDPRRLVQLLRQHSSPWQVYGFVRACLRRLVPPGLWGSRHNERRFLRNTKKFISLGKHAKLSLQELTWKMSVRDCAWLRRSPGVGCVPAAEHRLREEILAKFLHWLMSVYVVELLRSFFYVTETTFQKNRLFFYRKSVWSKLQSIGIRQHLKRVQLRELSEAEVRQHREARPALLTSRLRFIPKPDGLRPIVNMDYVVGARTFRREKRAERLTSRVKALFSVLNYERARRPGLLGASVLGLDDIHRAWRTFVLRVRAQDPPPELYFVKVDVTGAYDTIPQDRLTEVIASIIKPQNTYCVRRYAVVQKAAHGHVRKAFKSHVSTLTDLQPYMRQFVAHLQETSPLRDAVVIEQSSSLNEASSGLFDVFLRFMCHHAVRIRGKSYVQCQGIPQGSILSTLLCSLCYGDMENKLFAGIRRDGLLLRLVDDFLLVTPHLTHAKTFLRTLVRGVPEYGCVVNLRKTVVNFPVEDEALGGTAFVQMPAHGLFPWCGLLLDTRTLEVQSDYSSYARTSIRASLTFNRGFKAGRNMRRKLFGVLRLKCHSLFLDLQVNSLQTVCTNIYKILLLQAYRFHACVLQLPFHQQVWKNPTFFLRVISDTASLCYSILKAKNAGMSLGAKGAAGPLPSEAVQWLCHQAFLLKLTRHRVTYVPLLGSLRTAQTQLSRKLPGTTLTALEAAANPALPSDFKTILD

As to `CC[C@@]1(O)C(=O)OCc2c1cc1n(c2=O)Cc2cc3ccccc3nc2-1` [CPT, camptothecin, reference compound], the “embryo development after CPT only” value in the data set with embryos (CPT 5 mg/kg plus vehicle) is reported as “evidence of abnormal development”.
Regarding `CC(c1ccc(O)cc1)(c1ccc(O)cc1)c1ccc(O)cc1` [Compound 1], in the data set with C. elegans, the “Lifes pan ext. %” value stood at 30%.
On the same count and under the same terms, for `COc1ccc(C(C)(c2ccc(OC)cc2)c2ccc(OC)cc2)cc1` [Compound 5] the value was 12%; for `Cc1ccc(C(C)(c2ccccc2)c2ccccc2)cc1` [Compound 10], −1%; for `Cc1ccc(C(C)(c2ccc(C)cc2)c2ccc(C)cc2)cc1` [Compound 22], 21%.
For `COc1ccc(C(C)(c2ccc(-c3cccc4ccccc34)cc2)c2ccc(C3c4ccccc4-c4ccccc43)cc2)cc1` (centres unmarked) [Compound 31], the “Lifes pan ext. %” value with C. elegans is on record as 23%.
`CC(c1ccccc1)(c1ccc(-c2cccc3ccccc23)cc1)c1ccc(C2c3ccccc3Oc3ccccc32)cc1` (centres unmarked) [Compound 33]: in the data set on C. elegans, the “Lifes pan ext. %” value is listed as −26%.
On the same count and under the same terms, the same measure for `CCOC(=O)COc1ccc(C(C)(c2ccc(OCC(=O)OCC)cc2)c2ccc(OCC(=O)OCC)cc2)cc1` [Compound 42]: −7%; for `CC(c1ccccc1)(c1ccccc1)c1ccccc1` [Compound 49]: 16%; for `COc1ccc(C(c2ccc(-c3c[nH]c4ccccc34)cc2)c2ccc(-c3c[nH]c4ccccc34)cc2)cc1` [Compound 50]: 4%.
On the same count and under the same terms, for `CC(c1ccc(O)cc1)(c1ccc(O)cc1)c1ccc(-c2ccncc2)cc1` [Compound 53] the value was 13%; for `CC(c1ccc(O)cc1)(c1ccc(O)cc1)c1ccc(-c2cccnc2)cc1` [Compound 54], 15%.
For `Oc1ccc(P(c2ccc(O)cc2)c2ccc(O)cc2)cc1` [Compound 60], the Lifespan % in the data set on C. elegans (table of scaffold drawing 35) was −2%.
As to `O=P(c1ccc(O)cc1)(c1ccc(O)cc1)c1ccc(O)cc1` [Compound 61], the “Lifespan extension (%)” value in the data set on C. elegans is reported as 30%. Also, the Lifespan % with C. elegans (table of scaffold drawing 35) was 30%.
In the case of `COc1ccc(P(c2ccc(OC)cc2)c2ccc(OC)cc2)cc1` [Compound 62], in the data set on C. elegans, the “Lifespan extension (%)” value is 29%. Moreover, in the data set with C. elegans (table of scaffold drawing 35), the Lifespan % turned out to be 29%.
For the compound `COc1ccc(P(=O)(c2ccc(OC)cc2)c2ccc(OC)cc2)cc1` [Compound 63], the Lifespan % with C. elegans (table of scaffold drawing 35) stood at 0%.
Still for that read-out and setting: for `c1ccc(P(c2ccccc2)c2ccccc2)cc1` [Compound 64] the value was 19%.
The same measure, in the same setting: for `Cc1ccc(P(c2ccc(C)cc2)c2ccc(C)cc2)cc1` [Compound 65] the value was 42%.
Same read-out and setting: for `Brc1ccc(N(c2ccc(Br)cc2)c2ccc(Br)cc2)cc1` [Compound 66] the value was 19%.
For the compound `CC(c1cc(Br)c(O)c(Br)c1)(c1cc(Br)c(O)c(Br)c1)c1cc(Br)c(O)c(Br)c1` [Compound 68, 1,1,1-tris(4-hydroxy-3,5-dibromo-phenyl)-ethane], the “Lifespan extension (%)” value with C. elegans was 13%. For the same compound, the Lifespan % in the data set on C. elegans (table of scaffold drawing 36) is listed as 13%. Moreover, in the data set with telomerase protein, the “time of peak telomerase activation” value was 1 to 3 h. In addition, in the data set on telomerase protein (3-24 h, western blot), the telomerase protein level entry is on record as “increased telomerase protein level”. For the same compound, the “level of telomerase compared to vehicle-treated cells after 24 h” value in the data set on telomerase protein (24 h) is reported as “only slightly higher”. In the data set with telomerase mRNA (single dose of 1 mM, 1-24 h), the “level of telomerase full-length and splice variant mRNA, fold of control” value is on record as “up to 4.5 fold”. In addition, in the data set on telomerase [1], the “staining of telomerase in the endometrial tissue (immunohistochemistry)” value is reported as “significant increase”. Moreover, the “degradation of the endometrial epithelial layer” value with telomerase [1] (female rats in diestrus) is “prevented the degradation of the endometrial epithelial layer”. Besides, the “embryo development after CPT plus compound” value with embryos (CPT 5 mg/kg then compound 6 mg/kg) is recorded as “developed normally”. In addition, the “enhancement of telomerase activity in RPE cells” value on telomerase [2] came out at 30 fold.
For the compound `CC(c1ccc(O)c(Br)c1)(c1ccc(O)c(Br)c1)c1ccc(O)c(Br)c1` [Compound 69], the Lifespan % in the data set with C. elegans (table of scaffold drawing 36) is recorded as −5%.
On the same count and under the same terms, the same measure for `COc1c(Br)cc(C(C)(c2cc(Br)c(OC)c(Br)c2)c2cc(Br)c(OC)c(Br)c2)cc1Br` [Compound 70]: 41%; for `CC(c1ccc(O)c([N+](=O)[O-])c1)(c1ccc(O)c([N+](=O)[O-])c1)c1ccc(O)c([N+](=O)[O-])c1` [Compound 71]: 8%.
The same measure, in the same setting: the same measure for `COc1ccc(C(C)(c2ccc(OC)c([N+](=O)[O-])c2)c2ccc(OC)c([N+](=O)[O-])c2)cc1[N+](=O)[O-]` [Compound 72]: 4%; for `COc1c(I)cc(C(C)(c2cc(I)c(OC)c(I)c2)c2cc(I)c(OC)c(I)c2)cc1I` [Compound 73]: −7%.
`CN1CCN(Cc2cc(C(C)(c3cc(CN4CCN(C)CC4)c(O)c(CN4CCN(C)CC4)c3)c3cc(CN4CCN(C)CC4)c(O)c(CN4CCN(C)CC4)c3)cc(CN3CCN(C)CC3)c2O)CC1` [Compound 78]: the “Lifespan extension (%)” value in the data set on C. elegans was found to be 36%. Also, the Lifespan % in the data set with C. elegans (table of scaffold drawing 36) is recorded as 36%. Besides, in data set [3] (ethanol), the solubility in ethanol entry is “Soluble”. Further, the solubility in water result in data set [3] (water) is recorded as “very good solubility”.
Regarding `Cc1c2oc3c(C)ccc(C(=O)N[C@@H]4C(=O)N[C@H](C(C)C)C(=O)N5CCC[C@H]5C(=O)N(C)CC(=O)N(C)[C@@H](C(C)C)C(=O)O[C@@H]4C)c3nc-2c(C(=O)N[C@@H]2C(=O)N[C@H](C(C)C)C(=O)N3CCC[C@H]3C(=O)N(C)CC(=O)N(C)[C@@H](C(C)C)C(=O)O[C@@H]2C)c(N)c1=O` [actinomycin D, reference compound] (I: T[dV]P[Sar][NMeV] / II: T[dV]P[Sar][NMeV]; ester I:1-I:C, II:1-II:C; linker I:N-II:N via Actinocin(9to1)), in the data set with telomerase mRNA (added for 3 h during treatment with Compound 68), the “effect of addition during compound treatment on activation of telomerase expression” value is reported as “abolished the activation of telomerase expression”.
